Experimental data taken from patent publication US20100298141A1, “SUBSTITUTED PYRIDINE N-OXIDE HERBICIDES” (E. I. DU PONT DE NEMOURS AND COMPANY, priority 2007, published 2010).

Experiments:
barnyardgrass = test: Test A pre-/postemergence greenhouse test; format: in vivo, Echinochloa crus-galli; settings: for Barnyardgrass plant response rating: 0 to 100 scale
Outline: (§1)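 Pre: directed soil spray on seeded loam/sand. Post: foliar spray, plants 2–10 cm, 1–2 leaf stage, applied concurrently. Vehicle: non-phytotoxic solvent + surfactant. Greenhouse ~10 d; visual injury rating vs untreated controls.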

yellow nutsedge = test: Test C pre-/postemergence test; format: in vivo, Cyperus esculentus
Outline: (§2)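 Test chemicals were formulated with surfactant in a non-phytotoxic solvent and sprayed both on freshly planted seeds (preemergence) and on 1- to 4-leaf plants of 2–18 cm (postemergence). Flooded-paddy pots received compound directly into 3 cm of standing water, maintained for the test.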

soybean = test: Test C pre-/postemergence test; format: in vivo, Glycine max
Outline: as §2

blackgrass = test: Test C pre-/postemergence test; format: in vivo, Alopecurus myosuroides
Outline: as §2

wheat = test: Test C pre-/postemergence test; format: in vivo, Triticum aestivum; settings: for Wheat plant response rating: preemergence, scale 0 (no effect) to 100 (complete control)
Outline: as §2

kochia = test: Test C pre-/postemergence test; format: in vivo, Kochia scoparia
Outline: as §2

corn = test: Test C pre-/postemergence test; format: in vivo, Zea mays
Outline: as §2

morningglory [1] = test: Test A pre-/postemergence greenhouse test; format: in vivo, Ipomoea spp.; settings: for Morningglory plant response rating: 0 to 100 scale
Outline: as §1

morningglory [2] = test: Test C pre-/postemergence test; format: in vivo, Ipomoea coccinea
Outline: as §2

green foxtail = test: Test C pre-/postemergence test; format: in vivo, Setaria viridis
Outline: as §2

[3] = test system: common (oilseed) sunflower; test: Test C pre-/postemergence test; format: in vivo, Helianthus annuus
Outline: as §2

cocklebur = test: Test C pre-/postemergence test; format: in vivo, Xanthium strumarium
Outline: as §2

umbrella sedge = test: Test C flooded paddy test; format: in vivo, Cyperus difformis; settings: Flood
Outline: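 Compound was added to standing water 3 cm above soil, flood maintained, and plants held in a greenhouse before visual scoring against controls at 13 to 15 days.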

woolly cupgrass = test: Test C pre-/postemergence test; format: in vivo, Eriochloa villosa
Outline: as §2

pigweed = test: Test C pre-/postemergence test; format: in vivo, Amaranthus retroflexus
Outline: as §2

crabgrass = test: Test C pre-/postemergence test; format: in vivo, Digitaria sanguinalis
Outline: as §2

Italian ryegrass = test: Test C pre-/postemergence test; format: in vivo, Lolium multiflorum
Outline: as §2

[4] = Postemergence, 125 g ai/ha, 0 is no effect, 100 is complete control
[5] = Postemergence, 500 g ai/ha, 0 is no effect, 100 is complete control
[6] = Preemergence, 125 g ai/ha, 0 no effect, 100 complete control
[7] = Preemergence, 500 g ai/ha, 0 to 100 scale where 0 is no effect and 100 is complete control
[8] = 31 g ai/ha, Preemergence, scale 0 to 100
[9] = preemergence, 125 g ai/ha, scale 0 (no effect) to 100 (complete control)
[10] = 62 g ai/ha, preemergence, scale 0 (no effect) to 100 (complete control)

Cn1nc(C(F)(F)F)c(CS(=O)(=O)c2cccc[n+]2[O-])c1Cl [Compound 9]
Barnyardgrass plant response rating (barnyardgrass; [4]): 80 | Barnyardgrass plant response rating (barnyardgrass; [5]): 80 | Barnyardgrass plant response rating (barnyardgrass; [6]): 100 | Plant response rating, Barnyardgrass (barnyardgrass; [7]): 100 | Nutsedge, Yellow plant response rating (yellow nutsedge; [8]): 40 | Plant response rating (0 to 100), Nutsedge, Yellow (yellow nutsedge; Preemergence, 250 g ai/ha): 100 | Nutsedge, Yellow plant response rating (yellow nutsedge; [9]): 100 | Soybean plant response rating (soybean; [8]): 10 | Plant response rating (0 to 100), Soybean (soybean; Preemergence, 250 g ai/ha): 45 | Soybean plant response rating (soybean; [9]): 40 | Blackgrass plant response rating (blackgrass; [8]): 0 | Blackgrass plant response rating (blackgrass; [10]): 50 | Plant response rating (0 to 100), Blackgrass (blackgrass; Preemergence, 250 g ai/ha): 95 | Blackgrass plant response rating (blackgrass; [9]): 50 | Wheat plant response rating (wheat; 62 g ai/ha): 30 | Plant response rating (0 to 100), Wheat (wheat; Preemergence, 250 g ai/ha): 70 | Wheat plant response rating (wheat; 125 g ai/ha): 45 | Kochia plant response rating (kochia; [8]): 0 | Plant response rating (0 to 100), Kochia (kochia; Preemergence, 250 g ai/ha): 100 | Kochia plant response rating (kochia; [9]): 100 | Corn plant response rating (corn; [8]): 20 | Plant response rating (0 to 100), Corn (corn; Preemergence, 250 g ai/ha): 98 | Corn plant response rating (corn; [9]): 98 | Morningglory plant response rating (morningglory [1]; [4]): 20 | Morningglory plant response rating (morningglory [1]; [5]): 70 | Morningglory plant response rating (morningglory [1]; [6]): 40 | Plant response rating, Morningglory (morningglory [1]; [7]): 70 | Morningglory plant response rating (morningglory [2]; [8]): 0 | Plant response rating (0 to 100), Morningglory (morningglory [2]; Preemergence, 250 g ai/ha): 100 | Morningglory plant response rating (morningglory [2]; [9]): 90 | Foxtail, Green plant response rating (green foxtail; [8]): 85 | Foxtail, Green plant response rating (green foxtail; [10]): 100 | Plant response rating (0 to 100), Foxtail, Green (green foxtail; Preemergence, 250 g ai/ha): 100 | Foxtail, Green plant response rating (green foxtail; [9]): 100 | Plant response rating (0 to 100), Sunflower ([3]; Preemergence, 250 g ai/ha): 70 | Sunflower plant response rating [3, 9]: 5 | Cocklebur plant response rating (cocklebur; [8]): 0 | Plant response rating (0 to 100), Cocklebur (cocklebur; Preemergence, 250 g ai/ha): 0 | Cocklebur plant response rating (cocklebur; [9]): 0 | Plant response rating, Sedge, Umbrella (umbrella sedge; 31 g ai/ha, scale 0 to 100 (0 no effect, 100 complete control)): 0 | Plant response rating, Sedge, Umbrella (umbrella sedge; 62 g ai/ha, scale 0 to 100, 0 no effect, 100 complete control, 13 to 15 days): 85 | Plant response rating, Sedge, Umbrella (umbrella sedge; 125 g ai/ha, scale 0 to 100, 0 no effect, 100 complete control, 13 to 15 days): 90 | Plant response rating, Sedge, Umbrella (umbrella sedge; 250 g ai/ha, scale 0 to 100 (0 no effect, 100 complete control)): 100 | Cupgrass, Woolly plant response rating (woolly cupgrass; [8]): 0 | Plant response rating (0 to 100), Cupgrass, Woolly (woolly cupgrass; Preemergence, 250 g ai/ha): 100 | Cupgrass, Woolly plant response rating (woolly cupgrass; [9]): 100 | Pigweed plant response rating (pigweed; [8]): 100 | Plant response rating (0 to 100), Pigweed (pigweed; Preemergence, 250 g ai/ha): 100 | Pigweed plant response rating (pigweed; [9]): 100 | Crabgrass, Large plant response rating (crabgrass; [8]): 100 | Plant response rating (0 to 100), Crabgrass, Large (crabgrass; Preemergence, 250 g ai/ha): 100 | Crabgrass, Large plant response rating (crabgrass; [9]): 100 | Ryegrass, Italian plant response rating (Italian ryegrass; [8]): 0 | Ryegrass, Italian plant response rating (Italian ryegrass; [10]): 50 | Plant response rating (0 to 100), Ryegrass, Italian (Italian ryegrass; Preemergence, 250 g ai/ha): 65 | Ryegrass, Italian plant response rating (Italian ryegrass; [9]): 65
